Data reported in patent US20250152605A1, “METHOD AND DRUG FOR TREATING NEURONAL CEROID LIPOFUSCINOSIS” (priority 2021, published 2025).
Entries after “also recorded” stand apart in the source; their conditions may differ.

How the values were obtained:
CLN3^Δex7/8 neurons = assay: Mitochondrial morphology with OMP25-GFP, laser confocal microscope; type: cell-based, human
Excerpt: Studies have shown that healthy mitochondria have a short stick-like morphology, with large potential differences across the mitochondrial membrane, which allows efficient generation of ATP that maintains normal cellular function. Damaged mitochondria undergo the process of mitochondrial fission, in which the mitochondria split into a punctate morphology, encapsulated by autophagosome, and transported into lysosomes for degradation. To detect the presence of abnormal mitochondrial morphology in CLN3^Δex7/8 human neurons, a Lentivirus plasmid with green fluorescent protein labeled OMP25 was constructed and used to infect wild-type and CLN3^Δex7/8 human neurons
To test the effect of compound G on mitochondrial homeostasis in CLN3^Δex7/8 neurons, fluorescently labeled mitochondrial outer membrane protein OMP25-GFP was overexpressed in neurons, and the morphological changes of mitochondria were observed by laser confocal microscope. […] The amount of ATP generation in the same number of neurons was tested using Cell Titer Glo reagent.

[1] = system: CLN3^Δex7/8 human neurons; assay: qRT-PCR of autophagy-related and lysosomal genes in human neurons; type: cell-based; settings: 6 hours
Experimental: The cells in the cell-culture dish were collected, extracted using AxyPrep Total RNA Mini Prep Kit or Qiagen AxyPrep Total RNA Mini Prep Kit, and the extracted RNA concentration is measured using Nanodrop; the extracted mRNA was reverse transcribed into cDNA by Transgen's EasyScript® One-Step gDNA Removal and cDNA Synthesis SuperMix and the primers used for reverse transcription were Oligo dT primers; the completion of reverse transcription followed by qRT-PCR reaction through PerfectStart™ Green qPCR SuperMix to detect the expression of the target gene; the qRT-PCR reaction was performed on the Bio-Rad CFX96 Real-Time PCR system; see Table 2 and Table 3 for the 20 μL qRT-PCR reaction system and reaction procedures; data analysis was performed in Prism 7 software using the 2^−ΔΔCt process with GAPDH as internal reference for relative quantification of the expression of the target gene.
The effect of Compound G on the transcription level of the autophagy-related genes and the lysosomal genes was further detected in the induced CLN3^Δex7/8 human neural stem cells and neurons.

KEAP1 protein = biological target: T1, KEAP1 protein (Homo sapiens, UniProt Q14145); assay: Quantitative thiol reactivity analysis; type: binding; settings: CLN3^Δex7/8 human neural stem cells, 30 μM, 2 hours, mass spectrometry
T1 construct: mass spectrometry was used to analyze the thiol reactivity of the cysteine residues on KEAP1 in the lysate; endogenous in cells; host or cells: CLN3 Δex7/8 human neural stem cells differentiated from H9 human embryonic stem cells
T1 sequence (Q14145 whole entry): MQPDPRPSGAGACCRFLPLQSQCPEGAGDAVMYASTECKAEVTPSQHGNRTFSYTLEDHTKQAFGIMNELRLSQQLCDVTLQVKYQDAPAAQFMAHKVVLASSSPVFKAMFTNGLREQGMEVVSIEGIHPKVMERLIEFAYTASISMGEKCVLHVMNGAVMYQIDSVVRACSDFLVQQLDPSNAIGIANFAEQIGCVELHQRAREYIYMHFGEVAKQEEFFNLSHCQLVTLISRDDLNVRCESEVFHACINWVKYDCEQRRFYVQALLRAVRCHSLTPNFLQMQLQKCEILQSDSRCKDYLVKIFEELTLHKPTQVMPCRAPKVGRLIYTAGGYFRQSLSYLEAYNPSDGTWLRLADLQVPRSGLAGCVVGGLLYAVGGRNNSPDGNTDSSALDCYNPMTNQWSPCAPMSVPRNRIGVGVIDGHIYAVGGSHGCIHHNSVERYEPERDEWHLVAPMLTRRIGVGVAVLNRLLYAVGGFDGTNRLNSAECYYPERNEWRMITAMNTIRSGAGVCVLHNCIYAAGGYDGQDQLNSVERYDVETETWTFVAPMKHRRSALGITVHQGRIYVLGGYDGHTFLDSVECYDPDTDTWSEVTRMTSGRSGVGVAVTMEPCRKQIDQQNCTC
Experimental: To determine the protein covalently bound to Compound G, a Compound G-binding proteomic analysis with the following steps was performed: neural stem cells were cultured in 10 cm cell culture dishes to a cell density of 90%. 1-2 mg of protein could be obtained after the neural stem cells in a 10 cm cell culture dish are lysed; the supernatant was aspirated, fresh medium containing 30 μM Compound G or medium containing an equal volume of solvent DMSO was added, followed by incubation in a cell culture incubator at 37° C. for 2 hours; the cell medium was aspirated followed by washing once with 10 mL of dPBS, and the aspiration should be as clean as possible.
The cell culture dish was placed on ice and added with RIPA cell lysis buffer with protease inhibitors and phosphatase inhibitors (for the formulation, please refer to the flow cytometry analysis and sorting section); all cells were scraped off on ice using a cell scraper and collected into 1.5 mL EP tubes; the sample was placed on ice and ultrasonically broken with an ultrasonic power of 20% and with ultrasound 5 times for 3 seconds each time; ENE probe at a final concentration of 100 μM was added to each sample, followed by incubation for 1 hour in the dark while rotating. ENE could react with sulfhydryl groups in protein cysteine residues to produce stable thioether bonds. […]

[2] = system: APP-gene mutant human neurons; assay: Human neuron model of Alzheimer's dementia (Aβ immunofluorescence, Aβ42 ELISA); type: cell-based
Excerpt: FIG. 44: Compound G reduced Aβ protein storage and secretion levels of toxic Aβ42 in APP mutant neurons. (a) Immunofluorescence staining, for detecting Compound G-treated APP mutant neurons for abnormal accumulation of Aβ protein and (b) statistics of Aβ plaque area, and the scale bar was 50 μm. (c) ELISA tests, for measuring the effect of Compound G on the secretion level of toxic Aβ42 of APP mutant neurons.
The present disclosure detected the therapeutic effect of the treatment of Compound G on Alzheimer's dementia. We directed the differentiation of human embryonic stem cells with mutations in APP gene into human neurons in vitro and constructed an in vitro human neuron model of Alzheimer's dementia.

For `C/C=C1\C(=O)C[C@H]2[C@@H]3CCC4=CC(=O)CC[C@]4(C)[C@H]3CC[C@]12C` [Compound G, (Z)-guggulsterone], the damaged punctate mitochondria (CLN3^Δex7/8 neurons) was “significantly reduce the occurrence of damaged punctate mitochondria; also recorded: significantly reduce the appearance of the damaged mitochondria”, the “expression of the autophagy-related genes or the lysosomal genes overall” value [1] was “did not significantly increase” and the “thiol reactivity of the cysteine residues on KEAP1” value (KEAP1 protein) was “reduce the thiol reactivity of cysteine residue 288”. For the same compound, the “deposition of Aβ plaques” value [2] was “significant reduction” and the “level of toxic Aβ42 secreted by the cells into the culture medium” value ([2]; ELISA) was “significant reduction”.
